Assays:
Assay type in all cases: cell-based
[1] = test system: colony forming PSCs in pre-purified cardiac clusters of murine ESC line αPIG44-D3; assay: Colony formation assay after treatment of pre-purified mESC cardiac clusters; details: 48 h
Experimental: (§1) Aiming at complete elimination of remaining PSCs in PSC-derived cell aggregates, murine cardiac clusters were pre-purified with 2-4 μg/ml puromycin from day 9 until day 14 of differentiation in order to prevent complete removal of PSCs and then treated with SM6 for 2 days to assess its potential for removal of contaminating PSCs in the absence of puromycin. After treatment, cardiac clusters were dissociated with 0.25% trypsin-EDTA supplemented with 50 U/ml of DNase I and the level of PSC contamination was determined using colony formation assay, flow cytometry for SSEA-1 and RT-PCR for Oct4. In colony formation assays 2×10^5 cells were plated on a 6 cm cell culture dish containing MEF and cultured in maintenance medium supplemented with 1000 U/ml of mLIF for 7-10 days. Developing PSC colonies on MEF plates were quantified and visualized with 1% crystal violet (Fluka Analytical, St. Louis, USA) diluted in methanol (Applichem).
To confirm the PSC-eliminating effect of the compound SM6, pre-purified cardiac clusters derived from transgenic murine ESC line αPIG44-D3 were also treated with SM6. The cells were differentiated in spinner flasks and incubated for 48 h with compound SM6 as described above with the exception that pre-purification was performed with 4 μg/ml of puromycin between day 9 and day 14, as schematically illustrated in FIG. 7a).

[2] = test system: contaminating colony-forming PSCs in unpurified EBs of murine iPSCs; assay: Colony formation assay after treatment of unpurified EBs; details: day 9 to day 16: SM6 1 μM then 5 μM from day 14; puromycin 8 μg/ml
Experimental: as §1
Purifying the whole CM population including GFP-negative CMs in murine PSC-derived EBs was tested with SM6 as well. […] The percentage of CM population in EBs was monitored by flow cytometry and the amount of contaminating PSCs was quantified by colony formation assay as described above. Fluorescence images of PSC-derived cell aggregates were captured with a Zeiss Axiovert 200M fluorescence microscope and analyzed with Zeiss Axiovision 4.5 software. […]

[3] = test system: residual PSCs in pre-purified cardiac clusters of murine αPIG-AT25 iPSCs; assay: Colony formation assay after treatment of pre-purified miPSC cardiac clusters; details: 48 h
Experimental: as §1
Murine αPIG-AT25 iPSCs were differentiated in spinner flasks and pre-purification of CMs with puromycin was initiated on day 9 for a time period of 5 days, as is schematically illustrated in FIG. 6a). Compared to the standard protocol for the selection of miPSC-CMs, the applied concentration of puromycin was reduced from 8 μg/ml to 2 μg/ml in order to preserve a small population of PSCs in the cardiac clusters which were then treated with 1 μM, 5 μM and 10 μM of compound SM6 for 48 hours.
For quantifying the residual PSCs, the cardiac cluster-derived cells were cultured on MEFs under iPSC conditions to allow PSCs to form colonies which were visualized by crystal violet staining. The pluripotency of grown colonies was confirmed by immunocytochemical stainings for Oct4, at day 7 after plating of CMs from dissociated cardiac clusters on MEF.

| Structure (SMILES) | reduction of the number of ESC-derived colonies compared to DMSO control ([1]; 1 μM) [%] | reduction of the number of ESC-derived colonies compared to DMSO control ([1]; 5 μM) [%] | reduction of the number of ESC-derived colonies compared to DMSO control ([1]; 10 μM) [%] | reduction of contaminating colony-forming PSCs [2] [%] | reduction of the number of colonies compared to DMSO-treated control ([3]; 1 μM) [%] | number of colonies after plating of 2×10^5 cells ([3]; 5 μM) [colonies] | number of colonies after plating of 2×10^5 cells ([3]; 10 μM) [colonies] | reduction of the number of ESC-derived colonies compared to DMSO control ([1]; puromycin 8 μg/ml) [%] | number of colonies after plating of 2×10^5 cells ([3]; puromycin 8 μg/ml) [colonies] | reduction of the number of colonies compared to DMSO-treated control ([3]; puromycin 8 μg/ml) [%] |
| --- | --- | --- | --- | --- | --- | --- | --- | --- | --- | --- |
| Oc1ccccc1CN[C@@H]1CCCC[C@H]1NCc1ccccc1O [SM6, (1R,2R)-N,N′-di(2-hydroxybenzyl)-1,2-diaminocyclohexane] | 20.03±26.95 | 93.75±3.45 | 96.23±0.75 | 98.88±1.04 | 71.9±21.19 | 2.00±2.94 | 0.37±0.60 |  |  |  |
| COc1ccc(C[C@H](N)C(=O)N[C@H]2[C@@H](O)[C@H](n3cnc4c(N(C)C)ncnc43)O[C@@H]2CO)cc1 [puromycin, reference compound] |  |  |  | 97.55±4.02 |  |  |  | 47.83±24.89 | 28.9±23.37 | 64.87±25.55 |
